Data published in EP0410244A1, “Leukotriene antagonists” (BAYER AG, priority 1989, dated 1991).

System: LTC₄ induced contraction of guinea-pig ileum
Experiment: Inhibition of leukotriene (LTC₄) induced contraction of guinea-pig ileum in vitro
Format: cell-based, guinea-pig (Male Dunkin-Hartley strain)
Conditions: Cavia porcellus
Description: The leukotriene antagonist activity of the compounds of this invention is measured by the ability of the compounds to inhibit the leukotriene induced contraction of guinea-pig ileum in vitro as described below.
Five (5) centimeter longitudinal strips of guinea-pig ileum (Male Dunkin-Hartley strain) were bathed in modified Tyrodes buffer, containing 3µM indomethacin, in jacketed 10 mL tissue baths at 37°C and continuously aerated with 95% O₂/5% CO₂. The tissues were connected via cotton sutures to isotonic transducers. The tissues were equilibrated for 60 minutes and 100µM histamine was added to determine the maximal response of the tissues. This was removed by washout to give a steady baseline. Then the test compound, or vehicle control, was added cumulatively in half-log units until a bath concentration of 10µM was reached.
After a further equilibration period of 15 minutes, a concentration response curve to the reference agonist (LTD₄ or LTC₄) was generated. All determinations were carried out in triplicate and observations normalised against the maximal leukotriene response. Least-squares linear regression analysis was then used to calculate the concentration of leukotriene needed to elicit 50% of the maximum response and defined as the EC₅₀. […]
All compounds were measured against LTD₄ as the reference agonists except the compound of Example 65 which were measured against LTC₄.

For `CCCCC/C=C\C\C=C/C=C/C=C/[C@@H](Sc1ccc(C(=O)O)cc1)[C@@](C)(O)CCCC(=O)O` [Example 65, 5S-Hydroxy-5-methyl-6R-(4-carboxyphenylthio)eicosa-7E,9E,11Z,14Z-tetraenoic Acid], the Kb was 398 nM.
